Data taken from ChEMBL document CHEMBL1122993, “3-Alkyl-3-hydroxyglutaric acids: a new class of hypocholesterolemic HMG CoA reductase inhibitors. 1” (J Med Chem, 1985).
One block for each molecule: values may come before it.

What was measured:
[1] = target: T1, 3-hydroxy-3-methylglutaryl-coenzyme A reductase (Rattus norvegicus) (UniProt P51639); assay: In vitro inhibition of rat liver HMG-CoA reductase at concentration of 10e-3 M
T1 sequence (whole entry): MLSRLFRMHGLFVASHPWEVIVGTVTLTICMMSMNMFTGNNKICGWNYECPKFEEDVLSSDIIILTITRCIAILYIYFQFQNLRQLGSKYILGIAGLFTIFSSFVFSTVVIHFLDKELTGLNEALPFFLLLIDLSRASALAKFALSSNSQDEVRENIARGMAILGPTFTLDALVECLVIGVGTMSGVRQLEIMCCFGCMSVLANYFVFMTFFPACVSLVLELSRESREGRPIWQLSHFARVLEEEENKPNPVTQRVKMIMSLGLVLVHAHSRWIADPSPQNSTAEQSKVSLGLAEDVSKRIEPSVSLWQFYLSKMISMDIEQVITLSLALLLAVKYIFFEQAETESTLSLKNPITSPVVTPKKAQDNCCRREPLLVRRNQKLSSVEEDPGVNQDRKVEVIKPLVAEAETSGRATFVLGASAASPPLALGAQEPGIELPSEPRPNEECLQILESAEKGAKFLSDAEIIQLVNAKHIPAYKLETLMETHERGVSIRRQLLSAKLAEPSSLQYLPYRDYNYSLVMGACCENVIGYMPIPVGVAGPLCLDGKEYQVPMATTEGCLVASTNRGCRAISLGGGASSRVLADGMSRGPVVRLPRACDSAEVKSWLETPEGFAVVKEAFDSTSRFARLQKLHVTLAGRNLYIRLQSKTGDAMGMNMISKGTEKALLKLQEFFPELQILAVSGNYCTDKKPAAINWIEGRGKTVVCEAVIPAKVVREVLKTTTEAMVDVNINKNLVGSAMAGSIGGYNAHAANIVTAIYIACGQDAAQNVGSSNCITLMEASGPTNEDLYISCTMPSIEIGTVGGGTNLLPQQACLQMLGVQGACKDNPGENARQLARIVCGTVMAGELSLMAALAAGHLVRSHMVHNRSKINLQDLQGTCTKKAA

Rattus norvegicus [2] = assay: Percent reduction of Serum Cholesterol in Triton-treated rat at dose 100 mg/kg by intragastric administration (p<0.01); type: functional
Rattus norvegicus [3] = assay: Percent reduction of Serum Cholesterol in Triton-treated rat at dose 200 mg/kg by intragastric administration (p<0.01); type: functional
Rattus norvegicus [4] = assay: Percent reduction of Serum Cholesterol in Triton-treated rat at dose 300 mg/kg by intragastric administration (p<0.01); type: functional
Rattus norvegicus [5] = assay: Percent reduction of Serum Cholesterol in Triton-treated rat at dose 50 mg/kg by intragastric administration; type: functional
Rattus norvegicus [6] = assay: Percent reduction of Serum Cholesterol in Triton-treated rat at dose 80 mg/kg by intragastric administration; type: functional
Rattus norvegicus [7] = assay: Percent reduction of HMGR activity in diazasterol-treated rat at dose 10 mg/kg by intragastric administration; type: functional
[8] = target: T2, 3-hydroxy-3-methylglutaryl-coenzyme A reductase (Rattus norvegicus, UniProt P51639); assay: Inhibition of HMG-CoA reductase from rat liver
T2 sequence (P51639 whole entry): T1 sequence (whole entry)

Rattus norvegicus [9] = assay: Percent reduction of HMGR activity in diazasterol-treated rat at dose 100 mg/kg by intragastric administration (p<0.05); type: functional
Rattus norvegicus [10] = assay: Percent reduction of HMGR activity in diazasterol-treated rat at dose 20 mg/kg by intragastric administration (p<0.05); type: functional
Rattus norvegicus [11] = assay: Percent reduction of HMGR activity in diazasterol-treated rat at dose 50 mg/kg by intragastric administration (p<0.05); type: functional
[12] = substrate: CCCCCCCCCCCCCCCC(O)(CC(=O)O)CC(=O)O
Description: Competitive inhibition of HMG-CoA reductase

inhibition [1]: 0%
Molecule: CCCCCCCCCCCCCCCC(O)(CCO)CCO

inhibition [1]: 5%
Molecule: CCCCCCC(O)(CC(=O)O)CC(=O)O

inhibition [1]: 57%
Molecule: CCCCCCCCCCC1(O)CCOC(=O)C1 (stereo not given)

inhibition [1]: 0%
Molecule: CC(O)(CC(=O)O)CC(=O)O

inhibition [1]: 1%
Molecule: CCCCCCCCCCCCCCCC(O)(CC(=O)OC)CC(=O)OC
Reduction (Rattus norvegicus [2]): 4%
Reduction (Rattus norvegicus [3]): 4%
Reduction (Rattus norvegicus [4]): 2%

Molecule: CC[C@H](C)C(=O)O[C@H]1CCC=C2C=C[C@H](C)[C@H](CC[C@@H]3C[C@@H](O)CC(=O)O3)[C@H]21 [MEVASTATIN]
Reduction (Rattus norvegicus [5]): 17%
Reduction (Rattus norvegicus [6]): 28%
Reduction (Rattus norvegicus [7]): 60%

inhibition [1]: 0%
Molecule: COC(=O)CC(C)(O)CC(N)=O (stereo not given)

inhibition [1]: 0%
Molecule: CCOC(=O)CC(C)(O)CC(=O)OCC

inhibition [1]: 9%
Molecule: CCCCCCCCCCCCCCCC1(OC(C)=O)CC(=O)OC(=O)C1

inhibition [1]: 29%
Molecule: CCC(O)(CC(=O)O)CC(=O)O

inhibition [1]: 0%
Molecule: CC1(O)CC(=O)OC(=O)C1

IC50 [8]: 350 µM
inhibition [1]: 86%
Molecule: CCCCCCCCCCCCCCCCCCCC(O)(CC(=O)O)CC(=O)O

inhibition [1]: 0%
Molecule: CCCCCCCCCCCCCCCC(O)(CC(=O)O)CC(=O)OCCN(C)C (stereo not given)

inhibition [1]: 0%
Molecule: CCCCCCCCCCC(O)(CCO)CCO

inhibition [1]: 10%
Molecule: CC(C)C(O)(CC(=O)O)CC(=O)O

IC50 [8]: 50 µM
inhibition [1]: 99%
Molecule: CCCCCCCCCCCCCCCC(O)(CC(=O)O)CC(=O)O
Reduction (Rattus norvegicus [2]): 4%
Reduction (Rattus norvegicus [3]): 17%
Reduction (Rattus norvegicus [4]): 22%
Reduction (Rattus norvegicus [9]): 40%
Reduction (Rattus norvegicus [10]): 27%
Reduction (Rattus norvegicus [11]): 31%

inhibition [1]: 0%
Molecule: CCCCCCCCCCCCCCC/C(=C\C(=O)O)CC(=O)O

Molecule: CCCCCCCCCCCCCCCC(O)(CC(=O)OCC)CC(=O)OCC
Reduction (Rattus norvegicus [3]): 3%

inhibition [1]: 0%
Molecule: CCCCCCCCCCC(O)(CC(=O)OCC)CC(=O)OCC

inhibition [1]: 37%
Molecule: CCCC(O)(CC(=O)O)CC(=O)O

inhibition [1]: 50%
Molecule: CC1(O)CC(=O)NC(=O)C1

B1: 3-hydroxy-3-methylglutaryl-coenzyme A reductase (Rattus norvegicus), P51639 (protein)
chain: T1 sequence (whole entry)
Km [12]: 8 µM
